The values below come from US12606561B2, “Substituted pyrazolo[1,5-a][1,3,5]triazines as CDK inhibitors” (QURIENT CO., LTD., priority 2018, dated 2026).

Molecules are shown by their SMILES.

Experiment [1] deals with T1, CDK1/Cyclin B (Homo sapiens, UniProt P06493).
T1 construct: purchased Invitrogen PR4768C
The experiment in a line: Enzymatic assay for CDK1 (LANCE Ultra kinase assay, FRET based). The experiment is classed as biochemical. As to conditions: ATP at Km; read-out: CDK1 enzymatic activity IC50. Put shortly:
(§1)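 Purified CDK7/Cyclin H/MNAT1 or CDK1/Cyclin B complexes were tested for inhibition at Km ATP. Phosphorylation of a ULight-labelled peptide was detected by FRET with a Europium anti-phospho antibody (LANCE Ultra).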
(In general: In TR-FRET formats the signal depends on donor and acceptor labels being close together.)

Experiment [2] deals with T2, CDK2/Cyclin A (Homo sapiens, UniProt P24941).
T2 construct: purchased Invitrogen PV6290
Nature of the experiment: Enzymatic assay for CDK2 (LANCE Ultra kinase assay, FRET based). The experiment is classed as biochemical. Particulars: ATP at Km. Put shortly:
(§2)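 TR-FRET kinase assay at ATP Km with ULight-MBP peptide (68 nM) and Eu-anti-phospho-MBP antibody; CDK2/Cyclin A at […], CDK5/p25 at […]. 8-dose 4-fold compound dilutions; 60 min kinase reaction at 23° C., EDTA stop, 60 min detection, read at 615/665 nm.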

For experiment [3], the target named is T3, CDK5/p25 (Homo sapiens, UniProt Q00535).
T3 construct: purchased Invitrogen PR8543B
T3 sequence (Q00535 whole entry): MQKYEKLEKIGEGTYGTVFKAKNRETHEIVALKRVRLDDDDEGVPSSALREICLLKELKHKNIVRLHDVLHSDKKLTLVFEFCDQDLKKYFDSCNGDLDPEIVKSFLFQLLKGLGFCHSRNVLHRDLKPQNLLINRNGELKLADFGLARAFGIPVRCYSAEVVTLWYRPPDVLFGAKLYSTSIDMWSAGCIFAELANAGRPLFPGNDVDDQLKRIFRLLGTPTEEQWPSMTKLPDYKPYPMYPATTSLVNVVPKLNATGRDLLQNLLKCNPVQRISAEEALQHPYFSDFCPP
T3 sequence (Q15078 99-307 partner limits assumed): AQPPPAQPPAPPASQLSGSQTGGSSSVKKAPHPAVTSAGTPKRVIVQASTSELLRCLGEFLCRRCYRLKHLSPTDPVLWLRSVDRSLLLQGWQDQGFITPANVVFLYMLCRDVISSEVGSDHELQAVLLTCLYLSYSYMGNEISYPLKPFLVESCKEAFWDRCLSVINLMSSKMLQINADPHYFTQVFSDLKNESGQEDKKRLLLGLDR
Nature of the experiment: Enzymatic assay for CDK5 (LANCE Ultra kinase assay, FRET based). It is filed as biochemical. As to conditions: ATP at Km. Put shortly: as §2

Experiment [4] has as its target T4, CDK7/Cyclin H/MNAT1 (Homo sapiens, UniProt P50613).
T4 construct: purchased Invitrogen PR6749B
Nature of the experiment: Enzymatic assay for CDK7 (LANCE Ultra kinase assay, FRET based). It is filed as biochemical. As to conditions: for IC50: ATP at Km. In a few lines:
as §1

Experiment [5] relates to A2780. Nature of the experiment: A2780 viability assay (CellTiter-Glo, 72 hours). It is filed as cell-based. Particulars: Homo sapiens; A2780 cells. Put shortly:
(§3)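 CellTiter-Glo luminescence measured viability after 72 h of compound exposure (0.0015–10 uM; DMSO below 0.1%) at 37 °C, 5% CO2, run in duplicate. Dosing began 24 h post-seeding in RPMI-1640/10% FBS at 1×10^4 (MV4-11), 5×10^3 (OVCAR-3) or 1×10^3 (A2780) cells/well.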
(Cellular ATP, detected with luciferase, serves as a proxy for viable cell number.)

Experiment [6] deals with OVCAR-3. The experiment in a line: OVCAR-3 viability assay (CellTiter-Glo, 72 hours). The experiment is classed as cell-based. Particulars: Homo sapiens; OVCAR-3 cells. Put shortly: as §3

The term IC50 denotes the point on the concentration scale where inhibition reaches its midpoint.

T4 sequence (P50613 whole entry): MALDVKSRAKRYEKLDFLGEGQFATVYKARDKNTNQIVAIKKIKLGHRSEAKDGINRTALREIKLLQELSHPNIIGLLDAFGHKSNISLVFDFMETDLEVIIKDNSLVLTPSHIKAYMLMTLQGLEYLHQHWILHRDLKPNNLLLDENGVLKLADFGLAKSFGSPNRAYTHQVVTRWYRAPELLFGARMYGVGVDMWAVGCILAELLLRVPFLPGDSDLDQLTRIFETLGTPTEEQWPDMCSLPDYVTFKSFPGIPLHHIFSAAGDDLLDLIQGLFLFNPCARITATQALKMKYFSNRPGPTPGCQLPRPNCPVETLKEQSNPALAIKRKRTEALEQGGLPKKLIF
T4 sequence (P51946 whole entry partner): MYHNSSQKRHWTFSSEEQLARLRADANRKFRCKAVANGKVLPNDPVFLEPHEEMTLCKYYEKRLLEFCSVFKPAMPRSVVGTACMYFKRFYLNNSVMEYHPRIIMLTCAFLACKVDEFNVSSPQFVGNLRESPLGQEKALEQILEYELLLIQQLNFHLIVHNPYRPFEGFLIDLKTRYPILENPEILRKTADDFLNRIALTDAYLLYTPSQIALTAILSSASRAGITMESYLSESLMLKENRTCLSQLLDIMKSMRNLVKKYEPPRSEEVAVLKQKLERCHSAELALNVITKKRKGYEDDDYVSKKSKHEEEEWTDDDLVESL
T4 sequence (P51948 whole entry partner): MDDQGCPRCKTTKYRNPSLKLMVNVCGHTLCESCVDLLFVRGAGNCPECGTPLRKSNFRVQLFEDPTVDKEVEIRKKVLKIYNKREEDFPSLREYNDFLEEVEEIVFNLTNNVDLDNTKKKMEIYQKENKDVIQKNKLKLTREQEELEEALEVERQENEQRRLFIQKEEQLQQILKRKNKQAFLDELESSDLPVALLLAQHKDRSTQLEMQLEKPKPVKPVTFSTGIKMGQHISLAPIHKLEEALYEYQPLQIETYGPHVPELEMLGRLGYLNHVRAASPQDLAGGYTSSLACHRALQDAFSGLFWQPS
T1 sequence (P06493 whole entry): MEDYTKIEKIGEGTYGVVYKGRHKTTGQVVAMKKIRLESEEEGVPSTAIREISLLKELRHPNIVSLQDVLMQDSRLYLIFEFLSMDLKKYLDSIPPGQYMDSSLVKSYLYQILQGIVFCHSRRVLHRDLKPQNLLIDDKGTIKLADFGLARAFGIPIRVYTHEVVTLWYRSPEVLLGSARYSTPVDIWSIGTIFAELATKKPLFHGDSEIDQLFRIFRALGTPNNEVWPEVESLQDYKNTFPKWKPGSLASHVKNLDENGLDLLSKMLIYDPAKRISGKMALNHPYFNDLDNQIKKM
T1 sequence (P14635 whole entry partner): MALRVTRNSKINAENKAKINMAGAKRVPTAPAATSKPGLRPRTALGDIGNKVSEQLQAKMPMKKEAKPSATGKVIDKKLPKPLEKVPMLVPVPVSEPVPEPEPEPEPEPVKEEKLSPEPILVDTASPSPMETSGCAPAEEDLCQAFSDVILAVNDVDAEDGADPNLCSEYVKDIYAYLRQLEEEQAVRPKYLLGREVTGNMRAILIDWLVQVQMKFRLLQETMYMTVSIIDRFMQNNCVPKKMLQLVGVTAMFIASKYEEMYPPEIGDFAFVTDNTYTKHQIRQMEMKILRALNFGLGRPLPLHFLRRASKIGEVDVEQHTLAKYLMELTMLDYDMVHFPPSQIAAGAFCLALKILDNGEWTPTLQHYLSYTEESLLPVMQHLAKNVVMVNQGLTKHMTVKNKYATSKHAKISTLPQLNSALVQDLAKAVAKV

Regarding `C=C(F)C(=O)Nc1ccc2c(-c3ccccc3CNc3nc(NC[C@H]4CCNC[C@H]4O)nc4c(C(C)C)cnn34)nccc2c1` [Compound 158], the IC50 in experiment [1] is over 1 µM; in experiment [2], over 1 µM; in experiment [3], over 1 µM; in experiment [4], under 0.1 µM; in experiment [5], under 1 µM; in experiment [6], under 1 µM. In addition, the “CDK1/CDK7: Selectivity of CDK7 inhibition over CDK1 inhibition” value in experiment [4] was “A (A indicates [fold] > 500)”. Further, in experiment [4], the “CDK2/CDK7: Selectivity of CDK7 inhibition over CDK2 inhibition” value is “A (A indicates [fold] > 500)”. Moreover, in experiment [4], the “CDK5/CDK7: Selectivity of CDK7 inhibition over CDK5 inhibition” value was “A (A indicates [fold] > 500)”.

Consider `CC(C)c1cnn2c(NCc3ccccc3-c3nccc4cc(NC(=O)/C=C/CN(C)C)ccc34)nc(NCC3CCN(C)CC3)nc12` [Compound 133], for which the IC50 was over 1 µM in experiment [1]; over 1 µM in experiment [2]; over 1 µM in experiment [3]; under 0.1 µM in experiment [4]; under 1 µM in experiment [5]; under 1 µM in experiment [6]. Besides, the “CDK1/CDK7: Selectivity of CDK7 inhibition over CDK1 inhibition” value in experiment [4] was “A (A indicates [fold] > 500)”. In addition, in experiment [4], the “CDK2/CDK7: Selectivity of CDK7 inhibition over CDK2 inhibition” value was “A (A indicates [fold] > 500)”. For the same compound, the “CDK5/CDK7: Selectivity of CDK7 inhibition over CDK5 inhibition” value in experiment [4] is “A (A indicates [fold] > 500)”.

For the compound `CC(C)c1cnn2c(NCc3ccccc3-c3nccc4cc(NC(=O)/C=C/CN5CCOCC5)ccc34)nc(NC3CCC(C)(C)NC3)nc12` (stereo not drawn) [Compound 180], the IC50 is over 1 µM in experiment [1]; over 1 µM in experiment [2]; over 1 µM in experiment [3]; under 0.1 µM in experiment [4]; under 1 µM in experiment [5]; under 1 µM in experiment [6]. Also, the “CDK1/CDK7: Selectivity of CDK7 inhibition over CDK1 inhibition” value in experiment [4] is “A (A indicates [fold] > 500)”. For the same compound, the “CDK2/CDK7: Selectivity of CDK7 inhibition over CDK2 inhibition” value in experiment [4] was “A (A indicates [fold] > 500)”. The “CDK5/CDK7: Selectivity of CDK7 inhibition over CDK5 inhibition” value in experiment [4] was “A (A indicates [fold] > 500)”.

Regarding `C=CC(=O)Nc1ccc2c(-c3ccccc3CNc3nc(NC4CCC(C)(C)NC4)nc4c(C(C)C)cnn34)nccc2c1` (stereo not drawn) [Compound 178], the half-maximal inhibitory concentration (IC50) in experiment [1] was over 1 µM; in experiment [2], over 1 µM; in experiment [3] it was over 1 µM; in experiment [4], under 0.1 µM; in experiment [5], under 1 µM; in experiment [6], under 1 µM. Also, the “CDK1/CDK7: Selectivity of CDK7 inhibition over CDK1 inhibition” value in experiment [4] is “A (A indicates [fold] > 500)”. The “CDK2/CDK7: Selectivity of CDK7 inhibition over CDK2 inhibition” value in experiment [4] is “A (A indicates [fold] > 500)”. In experiment [4], the “CDK5/CDK7: Selectivity of CDK7 inhibition over CDK5 inhibition” value was “A (A indicates [fold] > 500)”.

As for `C=C(F)C(=O)Nc1ccc2c(-c3ccccc3CNc3nc(N[C@H]4CN5CCC4CC5)nc4c(C(C)C)cnn34)nccc2c1` [Compound 176], the IC50 in experiment [1] is over 1 µM; in experiment [2], over 1 µM; in experiment [3], over 1 µM; in experiment [4] it was under 0.1 µM; in experiment [5], under 1 µM; in experiment [6], under 1 µM. Moreover, in experiment [4], the “CDK1/CDK7: Selectivity of CDK7 inhibition over CDK1 inhibition” value is “A (A indicates [fold] > 500)”. Moreover, the “CDK2/CDK7: Selectivity of CDK7 inhibition over CDK2 inhibition” value in experiment [4] is “A (A indicates [fold] > 500)”. For the same compound, the “CDK5/CDK7: Selectivity of CDK7 inhibition over CDK5 inhibition” value in experiment [4] was “A (A indicates [fold] > 500)”.

Consider `C=C(F)C(=O)Nc1ccc2c(-c3ccccc3CNc3nc(N[C@@H]4CCCNC4)nc4c(C(C)C)cnn34)nccc2c1` [Compound 166], for which the IC50 in experiment [1] was over 1 µM; in experiment [2], over 1 µM; in experiment [3], over 1 µM; in experiment [4], under 0.1 µM; in experiment [5], under 1 µM; in experiment [6], over 10 µM. The “CDK1/CDK7: Selectivity of CDK7 inhibition over CDK1 inhibition” value in experiment [4] was “A (A indicates [fold] > 500)”. In addition, the “CDK2/CDK7: Selectivity of CDK7 inhibition over CDK2 inhibition” value in experiment [4] was “A (A indicates [fold] > 500)”. Further, in experiment [4], the “CDK5/CDK7: Selectivity of CDK7 inhibition over CDK5 inhibition” value was “A (A indicates [fold] > 500)”.

As to `CC(C)c1cnn2c(NCc3ccccc3-c3nccc4cc(NC(=O)/C=C/CN(C)C)ccc34)nc(N3CCC(S(=O)(=O)N(C)C)CC3)nc12` [Compound 126], the IC50 in experiment [1] was over 1 µM; in experiment [2], over 1 µM; in experiment [3], over 1 µM; in experiment [4], 0.1 to 1 µM; in experiment [5], under 1 µM; in experiment [6], under 1 µM. In experiment [4], the “CDK1/CDK7: Selectivity of CDK7 inhibition over CDK1 inhibition” value was “B (B indicates 50 < [fold] ≤ 500)”. For the same compound, the “CDK2/CDK7: Selectivity of CDK7 inhibition over CDK2 inhibition” value in experiment [4] was “B (B indicates 50 < [fold] ≤ 500)”. In addition, in experiment [4], the “CDK5/CDK7: Selectivity of CDK7 inhibition over CDK5 inhibition” value was “B (B indicates 50 < [fold] ≤ 500)”.

Take `CC(C)c1cnn2c(NCc3ccccc3-c3nccc4cc(NC(=O)/C=C/CN(C)C)ccc34)nc(N[C@H]3CC[C@H](C)NC3)nc12` [Compound 151]: the IC50 was over 1 µM in experiment [1]; over 1 µM in experiment [2]; over 1 µM in experiment [3]; under 0.1 µM in experiment [4]; under 1 µM in experiment [5]; under 1 µM in experiment [6]. Also, in experiment [4], the “CDK1/CDK7: Selectivity of CDK7 inhibition over CDK1 inhibition” value is “A (A indicates [fold] > 500)”. Moreover, the “CDK2/CDK7: Selectivity of CDK7 inhibition over CDK2 inhibition” value in experiment [4] was “A (A indicates [fold] > 500)”. Besides, the “CDK5/CDK7: Selectivity of CDK7 inhibition over CDK5 inhibition” value in experiment [4] was “A (A indicates [fold] > 500)”.

In the case of `C=C(F)C(=O)Nc1ccc2c(-c3ccccc3CNc3nc(N[C@@H]4CCC(C)(C)NC4)nc4c(C(C)C)cnn34)nccc2c1` [Compound 174], the IC50 in experiment [1] is over 1 µM; in experiment [2], over 1 µM; in experiment [3], over 1 µM; in experiment [4], under 0.1 µM; in experiment [5], under 1 µM; in experiment [6], under 1 µM. Further, the “CDK1/CDK7: Selectivity of CDK7 inhibition over CDK1 inhibition” value in experiment [4] was “A (A indicates [fold] > 500)”. Moreover, the “CDK2/CDK7: Selectivity of CDK7 inhibition over CDK2 inhibition” value in experiment [4] is “A (A indicates [fold] > 500)”. In experiment [4], the “CDK5/CDK7: Selectivity of CDK7 inhibition over CDK5 inhibition” value was “A (A indicates [fold] > 500)”.

In the case of `C=C(F)C(=O)Nc1ccc2c(-c3ccccc3CNc3cc(NCC4CNCCO4)nc4c(C(C)C)cnn34)nccc2c1` (stereo not drawn) [Compound 94], the IC50 was over 1 µM in experiment [1]; over 1 µM in experiment [2]; over 1 µM in experiment [3]; under 0.1 µM in experiment [4]; under 1 µM in experiment [5]; under 1 µM in experiment [6]. Also, the “CDK1/CDK7: Selectivity of CDK7 inhibition over CDK1 inhibition” value in experiment [4] is “A (A indicates [fold] > 500)”. Further, the “CDK2/CDK7: Selectivity of CDK7 inhibition over CDK2 inhibition” value in experiment [4] is “A (A indicates [fold] > 500)”. The “CDK5/CDK7: Selectivity of CDK7 inhibition over CDK5 inhibition” value in experiment [4] is “A (A indicates [fold] > 500)”.

For the compound `C=C(F)C(=O)Nc1ccc2c(-c3ccccc3CNc3nc(N[C@H]4CC[C@@H](OC)C4)nc4c(C(C)C)cnn34)nccc2c1` [Compound 96], the IC50 in experiment [1] was over 1 µM; in experiment [2], over 1 µM; in experiment [3] it was over 1 µM; in experiment [4], 0.1 to 1 µM; in experiment [5], under 1 µM; in experiment [6] it was under 1 µM. In addition, the “CDK1/CDK7: Selectivity of CDK7 inhibition over CDK1 inhibition” value in experiment [4] is “B (B indicates 50 < [fold] ≤ 500)”. For the same compound, the “CDK2/CDK7: Selectivity of CDK7 inhibition over CDK2 inhibition” value in experiment [4] is “B (B indicates 50 < [fold] ≤ 500)”. Also, the “CDK5/CDK7: Selectivity of CDK7 inhibition over CDK5 inhibition” value in experiment [4] was “B (B indicates 50 < [fold] ≤ 500)”.
